Assays:
[1] = biological target: T1, factor Xa in the presence of AT (Homo sapiens, UniProt P01008); assay: Determination of anti-factor Xa activity (IC50), Stachrom HP kit; format: biochemical; conditions: factor Xa inhibition in the presence of AT
T1 construct: purchased Diagnostica Stago Stachrom HP kit
Experimental: In the description of exemplified compounds, “IC50” represents the anti-factor Xa activity.
Determination of Anti-Factor Xa Activity of Compounds (IC50)
The compounds were compared as to their ability of inhibiting factor Xa in the presence of AT under standard conditions. For each compound a curve was plotted representing the inhibition % vs. concentration. The concentration inhibiting 50% of the factor Xa activity (IC50) was determined. A commercially available system was used for this purpose: compoundStachrom HP kit (Diagnostica Stago). This assay was carried out on a STA Compact (Diagnostica Stago).

[2] = Pharmacokinetic study after intravenous administration (half-life of elimination); format: in vivo, female Wistar Han rats; conditions: plasma concentration by anti-factor Xa bioassay
Experimental: Quantification of Compounds in Plasma
Rat plasmatic concentration of compounds (μg compound/mL plasma) was determined using a bioassay based on their anti-factor Xa activity (Stachrom HP kit, Diagnostica Stago as described above). This assay was carried out on a STA Compact (Diagnostica Stago). A specific calibration curve was preformed with each compound to be quantified in rat plasma.
Pharmacokinetic Study after Intravenous Administration (Half-Life of Elimination, T½)
The pharmacokinetics of the compounds of the present invention were investigated in female Wistar Han rats after intravenous administration.
Blood samples were taken at various time points and blood (9 volumes) was mixed with sodium citrate (1 volume) and cooled immediately on ice. The sample was subjected to a centrifugation at 3000×g for 10 minutes at low temperature (the plasma is typically stable for 24 h at temperature below 8° C.) and stored frozen at −20° C. Concentration of compound (per mL of plasma) was determined by their anti-factor Xa activity using factor Xa activity as described above.
For each compound, the half-life of elimination was calculated from the concentration versus time curve thus obtained.

[3] = cited from earlier work

T1 sequence (P01008 33-464): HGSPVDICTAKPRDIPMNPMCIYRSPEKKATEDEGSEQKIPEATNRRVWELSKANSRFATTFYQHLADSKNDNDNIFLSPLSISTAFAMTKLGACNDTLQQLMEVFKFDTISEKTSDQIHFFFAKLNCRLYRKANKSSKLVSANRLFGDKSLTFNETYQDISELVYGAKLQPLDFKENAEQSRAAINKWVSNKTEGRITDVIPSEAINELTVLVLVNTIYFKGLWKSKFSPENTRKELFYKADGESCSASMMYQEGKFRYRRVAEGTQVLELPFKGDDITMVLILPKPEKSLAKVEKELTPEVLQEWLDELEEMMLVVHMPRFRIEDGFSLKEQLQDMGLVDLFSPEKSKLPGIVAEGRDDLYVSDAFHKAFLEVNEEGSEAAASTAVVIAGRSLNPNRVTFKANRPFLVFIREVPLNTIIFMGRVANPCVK

IC50 [1]	half-life ([2]; female, Wistar Han, rat, read-out: T1/2 (Rat), half-life of elimination (converted))	T1/2 (Rat), half-life of elimination [2]	SMILES	half-life in human [3]
34 nM	3.5 ± 0.3 h	–	CCC1(C(=O)O)OC(OC2C(COS(=O)(=O)O)OC(OC3C(OC)C4OCC3(C(=O)O)OC4OC3C(COS(=O)(=O)O)OC(OC)C(OS(=O)(=O)O)C3OC)C(OS(=O)(=O)O)C2OS(=O)(=O)O)C(OC)C(OC)C1OC1OC(COS(=O)(=O)O)C(OC)C(OC)C1OC (centres unmarked) [Compound PA01]	–
108 nM	–	4.8 ± 0.5 h	CCCCCCOC1C(COS(=O)(=O)O)OC(OC2C(OC)C(OC)C(OC3C(COS(=O)(=O)O)OC(OC4C(OC)C5OCC4(C(=O)O)OC5OC4C(COS(=O)(=O)O)OC(OC)C(OS(=O)(=O)O)C4OC)C(OS(=O)(=O)O)C3OS(=O)(=O)O)OC2(CC)C(=O)O)C(N)C1OCCCCCC (centres unmarked) [Compound PA02]	–
–	–	–	CO[C@H]1O[C@H](COS(=O)(=O)O)[C@@H](O[C@@H]2O[C@@H](C(=O)O)[C@@H](O[C@H]3O[C@H](COS(=O)(=O)O)[C@@H](O[C@@H]4O[C@H](C(=O)O)[C@@H](O[C@H]5O[C@H](COS(=O)(=O)O)[C@@H](O)[C@H](O)[C@H]5NS(=O)(=O)O)[C@H](O)[C@H]4O)[C@H](OS(=O)(=O)O)[C@H]3NS(=O)(=O)O)[C@H](O)[C@H]2OS(=O)(=O)O)[C@H](O)[C@H]1NS(=O)(=O)O [Fondaparinux sodium]	17 h

Reference: US9556215B2, “Synthetic pentasaccharides having short half-life and high activity” (CARBOMIMETICS, priority 2011, dated 2017)
